What was measured:
LNCaP tumour vasculature = test: Dorsal skin flap model, tumour vessel coverage; assay type: in vivo, Balb/c SCID mice
Procedure: A viewing chamber was attached to a raised skin flap on the dorsal surface of the mouse (Balb/c SCID) and a fragment (˜0.5 mm) of LNCaP tumour was placed on the microvascular as previously described (9). Tumour vasculature was imaged weekly/4 weeks using a stereomicroscope. Image analysis was carried out using Touptek software (Touptek Photonics, China).

LNCaP cells [1] = test: LNCaP cell viability (MTT assay), normoxia or hypoxia; assay type: cell-based, human; details: 10 μM, 72 h
Procedure: (§1) Authenticated PC3 (ATCC CRL-1435), LNCaP (ATCC CRL-1740) and 22Rv1 (ATCC CRL-2505) cells were cultured as described in Seaton et al. (Carcinogenesis 2008; 29: 1148-56). C4-2B cells were maintained in RPMI 1640 supplemented with 10% fetal calf serum (FCS). MDV3100-sensitive (LNCaP-Par) and resistant (LNCaP-EnzR) cells were obtained from Prof. Vander Griend, University of Chicago, Chicago, Ill., and were cultured as described in Kregel et al. (Oncotarget 2016; 7: 26259-74). HUVEC (ATCC CRL-1730) cells were maintained in Endothelial Cell Growth Medium (#CC-3162, Lonza, UK). For experiments involving hypoxia (0.1% 02), cells were cultured as previously reported (Maxwell et al., Oncogene 2007; 26: 7333-45). Human IL-8 monoclonal antibody (#MAB208), human VEGF mAb (#AB293NA) and isotype-matched IgG (#MAB002) were obtained from R&D Systems (UK). MDV3100 (#S1250) was obtained from Selleckchem (Germany). Cells were regularly tested to ensure they were free of mycoplasma contamination.
(§2) Cell viability was assessed by 3-(4,5-dimethylthiazol-2-yl)-2,5-diphenyltetrazolium bromide (MTT) assay as previously described (Maxwell et al., Oncogene 2007; 26: 7333-45).

hypoxic LNCaP cells [2] = test: ELISA of secreted VEGF and IL-8 from hypoxic LNCaP cells; assay type: cell-based, human; details: MDV3100 10 μM, relative to DMSO
Procedure: as §1
Secreted IL-8 (#M1918, Pelikine, Mast Group, UK), and VEGF (#DY293B, R&D Systems, UK) were measured by ELISA as per manufacturer's instructions.

C4-2B cells = test: C4-2B cell viability assay; assay type: cell-based; details: 72 h
Procedure: as §1, §2

HUVEC cells = test: HUVEC apoptosis (Annexin V/PI staining); assay type: cell-based, human; details: 10 μM, 72 h
Procedure: FIG. 1 illustrates that MDV3100 treatment directly affects tumour vasculature. (A) Graph illustrating measured intra-tumoural oxygenation levels in growing MDV3100-treated LNCaP tumours, in the absence and presence of anti-IL-8 nAb (50 μg/ml) and/or anti-VEGF nAb (100 μg/ml). Values shown are mean (±SD). (B) Bar graph presenting time-dependent changes in tumour vessel density over time in MDV3100-treated LNCaP tumours, in the absence or presence of anti-IL-8 nAb (50 μg/ml) and/or anti-VEGF nAb (100 μg/ml). Stereological methods were used to analyze change in vessel density over time in all treatment groups and values were used to calculate percentage area covered by vessels. […] Data shown are the mean (±SEM) of four individual experiments. […] Viability was determined by MTT assay. […] Apoptosis was assessed by Annexin V/PI staining. […] The number of junctions was measured using AngioSys 2.0 software. […] For all data, statistically significant differences were determined using a Student's two-tailed t-test or Mann-Whitney U test:* p<0.05, ** p<0.01, *** p<0.001.
To further understand the events contributing to MDV3100-promoted hypoxia, we studied the direct effect of MDV3100 administration upon vascular endothelial cells using two independent i assays. In agreement with previous studies, we detected AR mRNA in HUVEC endothelial cells by qPCR analysis (FIG. 1C, top panel). […]

[3] = HUVEC cell viability (MTT assay); assay type: cell-based; details: human, HUVEC cells, read-out: reduction of viability of HUVEC cells
Procedure: as §2

PC3 cells [4] = test: Chick embryo experimental metastasis model (CAM assay), PC3 colonization; assay type: in vivo; details: over five days; 0.1 mL of 20 μM solution i.v. per embryo on days 1 and 2
Procedure: Experimental metastasis assays were performed in chick embryos as described (Deryugina et al., Histochem Cell Biol 2008; 130: 1119-30). On day 12 of incubation, PC3 cells were injected directly into the blood circulation through an allantoic vein (1×10^5 cells in 0.1 mL serum-free medium per embryo). MDV3100 was delivered i.v. on days 1 and 2 after cell inoculations (0.1 mL of a 20 μM solution per embryo). On day 5, portions of the CAM were harvested to quantify the number of human tumour cells by human-specific Alu-qPCR as previously described (Deryugina et al., Cancer Res 2005; 65: 10959-69), using a standard curve generated by serial dilutions of human tumour cells within a constant number (1×10^6) of chick embryo fibroblasts.

LNCaP-EnzR cells [5] = test: LNCaP-EnzR (MDV3100-resistant) cell viability assay; assay type: cell-based, human; details: MDV3100 10 μM, relative to DMSO control
Procedure: as §1, §2

hypoxic LNCaP cells [6] = test: qPCR of hypoxia-induced gene expression in LNCaP cells; assay type: cell-based, human; details: MDV3100 10 μM
Procedure: as §1
Nucleic acid samples were prepared and analyzed as previously described (Maxwell et al., Oncogene 2007; 26: 7333-45; Maxwell et al., Eur Urol 2013; 64: 177-88). Primer sequences were as follows: AR: Forward, 5′-[…]-3′ (SEQ ID NO: 1); Reverse, 5′-[…]-3′ (SEQ ID NO: 2); PSA/KLK3: Forward, 5′-[…]-3′ (SEQ ID NO: 3); Reverse, 5′-TTGCGCACACACGTCATT-3′ (SEQ ID NO: 4). Primer sequences for 18s, BCL2, CAIX, IL-8, and VEGF have been previously reported (Maxwell et al., Oncogene 2007; 26: 7333-45; Lekas et al., Urol Res 1997; 25: 309-14).

LNCaP tumours = test: Tumour oxygenation measurement in LNCaP xenograft model; assay type: in vivo, Balb/c SCID mice; details: MDV3100 4 mg/kg p.o. daily, nAbs i.p. 3x/week (anti-IL-8 50 μg/ml, anti-VEGF 100 μg/ml), over 28 days
Procedure: Tumour oxygenation was measured once weekly as previously described (Ming et al., Int J Cancer 2013; 132:1323-32).

[7] = system: endothelial cell tubule formation; test: In vitro angiogenesis (V2A vascular tubule formation) assay; assay type: cell-based; details: 10 days; for stimulation of endothelial cell tubule formation: VEGF 2 ng/ml or rh-IL-8 3 nM
Procedure: The V2A angiogenesis assay (#ZHA-4000, Cellworks, UK) was carried out according to the manufacturer's instruction. Cells were allowed to settle for 4 days prior to treatment. Treatments were carried out in duplicate and were replenished every 2 days for 10 days. For treatments involving conditioned media, PC3 or LNCaP cells were treated as required for 24 h, media harvested and stored at −20° C. Vessels were visualized at 4× magnification. Vessel density was measured in four fields per well using AngioSys 2.0 software (Cellworks, UK).

LNCaP cells [8] = test: PARP immunoblot in LNCaP cells; assay type: cell-based, human; details: 10 μM, 72 h
Procedure: (§3) Immunoblotting was performed as previously described (McCourt et al., Clin Cancer Res 2012; 18:3822-33). Antibodies were obtained as follows: AR, Millipore (#PG-21, UK); AR-V7 (#ab198394) & PARP (#14-6667-82), Abcam (UK); Bcl-2 (#4223), Cell Signalling Technology (The Netherlands); c-FLIP (#AG-20B-0056), Adipogen (Switzerland); RELA(p65) (#sc-372), Santa Cruz (CA, USA); GAPDH (#MCA4740), Biorad (UK).

PC3 cells [9] = test: PC3 cell viability assay; assay type: cell-based, human; details: increasing concentrations, 72 h, relative to DMSO vehicle control
Procedure: as §2

LNCaP xenograft = LNCaP xenograft study, tumour growth
Procedure: MDV3100 (in 0.1% DMSO in corn oil) was administered orally (p.o). Vehicle control (VC) or MDV3100 (4 mg/kg, equivalent to 100 mg/day in men) was administered daily. Human IL-8 and VEGF nAbs were administered 3×/week via intraperitoneal (i.p.) injection, at a final concentration of 50 μg/ml and 100 μg/ml, respectively. IgG control was at a final concentration of 150 μg/ml.
LNCaP cells (1×10^7 in Matrigel) were implanted on the rear dorsum of 8-10-week-old male Balb/c SCID mice. When tumour volume was 150-200 mm^3, mice were randomly assigned to treatment groups (3-5 per group). […] Mice were sacrificed at day 28 or day 35. Tumour growth over 28 days (% T/C) was calculated using the equation: % T/C=(mean tumour volume on day 28−mean starting volume)/(mean control tumour volume on day 28−mean control starting volume)×100.
Tumours were measured 3×/week using digital calipers. The length and width of the tumour was measured and the volume calculated using the formula volume=(length×width 2)/2. *, numbers in brackets show % T/C compared to enzalutamide alone at day 28; **, control is enzalutamide alone.

LNCaP-EnzR cells [10] = test: Immunoblot of PARP, AR, c-FLIP and Bcl-2 in LNCaP-EnzR cells; assay type: cell-based, human; details: MDV3100 10 μM, 72 h
Procedure: as §3

CNC(=O)c1ccc(N2C(=S)N(c3ccc(C#N)c(C(F)(F)F)c3)C(=O)C2(C)C)cc1F [MDV3100, Enzalutamide]
vessel coverage (percentage area covered by tumour vessels) (LNCaP tumour vasculature; 14 days): 5.2±2.2% | vessel coverage (percentage area covered by tumour vessels) (LNCaP tumour vasculature; after 7 days of treatment): 8.2±2.3% | vessel coverage (percentage area covered by tumour vessels) (LNCaP tumour vasculature; day 21): 10.3±3.1% | vessel coverage (percentage area covered by tumour vessels) (LNCaP tumour vasculature; day 28): 14.7±2.6% | viability of LNCaP cells (LNCaP cells [1]; hypoxic conditions): ineffective | viability of LNCaP cells (LNCaP cells [1]; normoxia, relative to DMSO control): reduced the viability | hypoxia-induced secretion of VEGF and IL-8 (ELISA) (hypoxic LNCaP cells [2]): failed to attenuate | sensitivity of C4-2B cells (viability) (C4-2B cells; hypoxia, 10 μM): reduced sensitivity | sensitivity of C4-2B cells (viability) (C4-2B cells; normoxic culture conditions): intermediate sensitivity | induction of apoptosis in HUVEC cells (HUVEC cells; hypoxia): significantly enhanced | induction of apoptosis in HUVEC cells (HUVEC cells; normoxic culture conditions): minimal | cytotoxicity at 72 h, 10 μM ([3]; 10 μM): 10% | cytotoxicity at 72 h, 50 μM ([3]; 50 μM): 17% | PC3 colonization in the CAM assay (PC3 cells [4]): significantly enhanced PC3 colonization | viability of LNCaP-EnzR cells (LNCaP-EnzR cells [5]): no effect | hypoxia-induced up-regulation of BCL2 (qPCR) (hypoxic LNCaP cells [6]): failed to reverse | hypoxia-induced up-regulation of CAIX (qPCR) (hypoxic LNCaP cells [6]): failed to reverse | hypoxia-induced expression of VEGF and IL-8 (qPCR) (hypoxic LNCaP cells [6]; relative to DMSO): failed to attenuate | intra-tumoural oxygen levels (LNCaP tumours): rapid, profound drop in tumour oxygen levels over the initial 14 days | tubule formation with conditioned medium from MDV3100-treated PC3 cells ([7]; CM of PC3 cells cultured with MDV3100 10 μM): no detrimental effect on tubule formation | development of branching junctions (vascular tubule formation) ([7]; MDV3100 10 μM): significantly impaired the development of branching junctions | full-length PARP protein (immunoblot) (LNCaP cells [8]; hypoxic LNCaP cells): stabilization of PARP | full-length PARP protein (immunoblot) (LNCaP cells [8]; normoxic LNCaP cells): loss of full-length PARP protein | viability of PC3 cells (PC3 cells [9]): unresponsive | Tumour volume at day 28 (mm^3) (±SD) (LNCaP xenograft; day 28, MDV3100 4 mg/kg p.o. daily, antibodies i.p. 3x/week): 423 (±90) mm^3 | reduction in tumour volume / tumour growth (LNCaP xenograft; treatment-day 28, over 28 days): 59.5% | % T/C (LNCaP xenograft; tumour growth over 28 days versus vehicle control): 39.0% | expression of full-length PARP (immunoblot) (LNCaP-EnzR cells [10]): clearly increased

VEGF
stimulation of endothelial cell tubule formation [7]: directly stimulated endothelial cell tubule formation

rh-IL-8: exogenous rh-IL-8 (3 nM) added in the tubule formation assay
stimulation of endothelial cell tubule formation [7]: less potent in stimulating tubule formation

From patent US20200276164A1, “PHARMACEUTICAL COMBINATIONS FOR THE TREATMENT OF CANCER” (The Queen's University of Belfast, priority 2017, published 2020)
